Common to all, as to experiment: Ras GTP binding domain inhibition assay (Cy3-GTP/Cy5-GTP competition)
One assay deals with T1, KRas G12D mutant (Homo sapiens, UniProt P01116, G12D).
T1 construct: fused on or other part: His tag, used for capture on nickel-coated plates
The conditions noted are these: at 20 μM. An outline of the steps:
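Ni-plate immobilised His-Ras, overnight 4 °C; cpd 20 μM (or dilution series for IC50), 1% DMSO, 3 h RT; optional His-Sos […] last hour; Cy3- or Cy5-GTP 100 nM, 45 min RT; 3× wash; bound fluorescence read.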

The target in the next assay is Rac-1 (Homo sapiens, UniProt P63000). An outline of the steps: (§1)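 Compounds tested at 20 μM or in serial dilution for IC50 against nickel-captured His-tagged GTPase, 3 hours at room temperature, with or without His-Sos GEF added for last hour. Fluorescent GTP then added at 100 nM for 45 minutes; wells washed, bound label measured by fluorescence.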
In a further assay the target is Rho-A (Homo sapiens, UniProt P61586). An outline of the steps: as §1
Where [1] appears, read: with SOS, read-out: KRas G12D mutant + SOS: % inh.
[2] abbreviates: without SOS, read-out: KRas G12D mutant: % inh.
[3] abbreviates: with SOS, read-out: Rac-1 + SOS: % inh.
The mark [4] stands for this setting: without SOS, read-out: Rac-1: % inh.
Setting [5] is: with SOS, read-out: Rho-A + SOS: % inh.
[6] abbreviates: without SOS, read-out: Rho-A: % inh.

Molecules are shown by their SMILES. Read-outs that look alike come from different tables or passages of the source.

As to `COc1cccc(Oc2nc(-c3ccccn3)nc(O)c2OC)c1` [drawing 936], the inhibition at 20 µM on KRas G12D mutant (setting [1]) is 51 to 75%; on KRas G12D mutant (setting [2]) it was 76 to 100%; at Rac-1 (setting [3]), 76 to 100%; on Rac-1 (setting [4]), 76 to 100%; on Rho-A (setting [5]) it was 51 to 75%; at Rho-A (setting [6]) it was 51 to 75%.

With `CN(Cc1ccccc1)C(=O)c1nc(-c2ccccn2)nc(O)c1O` [drawing 934], the inhibition at 20 µM at KRas G12D mutant (setting [1]) is 26 to 50%; at KRas G12D mutant (setting [2]), 26 to 50%; on Rac-1 (setting [3]) it was 26 to 50%; on Rac-1 (setting [4]), 51 to 75%; at Rho-A (setting [5]), 51 to 75%; at Rho-A (setting [6]) it was 51 to 75%.

As for `COc1nc(-c2ccccn2)nc(Nc2cnn(C)c2)c1OC` [drawing 929], the inhibition at 20 µM on KRas G12D mutant (setting [1]) is 0%; at KRas G12D mutant (setting [2]), 0%; on Rac-1 (setting [3]) it was 0%; at Rac-1 (setting [4]) it was 1 to 25%; on Rho-A (setting [5]) it was 1 to 25%; at Rho-A (setting [6]), 0%.

Regarding `COCCNc1nc(-c2cn(C)cn2)nc2sc(-c3cccc(OC)c3Cl)c(-c3ccc(OC)cc3)c12` [drawing 932], the inhibition at 20 µM was 26 to 50% on KRas G12D mutant (setting [1]); 26 to 50% on KRas G12D mutant (setting [2]); 51 to 75% on Rac-1 (setting [3]); 51 to 75% on Rac-1 (setting [4]); 51 to 75% at Rho-A (setting [5]); 51 to 75% on Rho-A (setting [6]).

In the case of `COc1cccc(-c2sc3nc(-c4nccn4C)nc(N[C@H]4C[C@@H](OC)C4)c3c2-c2ccccc2)c1F` [drawing 1026], the inhibition at 20 µM lay within 51 to 75% at KRas G12D mutant (setting [1]); 26 to 50% on KRas G12D mutant (setting [2]); 51 to 75% on Rac-1 (setting [3]); 51 to 75% at Rac-1 (setting [4]); 51 to 75% at Rho-A (setting [5]); 51 to 75% on Rho-A (setting [6]).

Turning to `CO[C@H]1C[C@@H](Nc2nc(-c3nccn3C)nc3sc(C(=O)N4CCOCC4)c(-c4ccccc4)c23)C1` [drawing 1057], the inhibition at 20 µM at KRas G12D mutant (setting [1]) fell in the range of 51 to 75%; at KRas G12D mutant (setting [2]), 51 to 75%; at Rac-1 (setting [3]), 76 to 100%; at Rac-1 (setting [4]), 51 to 75%; at Rho-A (setting [5]), 51 to 75%; on Rho-A (setting [6]), 51 to 75%.

On to `Cn1ccc(-c2sc3nc(-c4nccn4C)nc(O)c3c2-c2ccccc2)n1` [drawing 1039], for which the inhibition at 20 µM at KRas G12D mutant (setting [1]), on KRas G12D mutant (setting [2]), at Rac-1 (setting [3]), at Rac-1 (setting [4]), at Rho-A (setting [5]) and at Rho-A (setting [6]) was 26 to 50% in each case.

In the case of `COc1ccc(-c2c(-c3ccn(C)n3)sc3nc(-c4nccn4C)nc(N4CCC(OC)C4)c23)cc1` (stereo not drawn) [drawing 1003], the inhibition at 20 µM was 1 to 25% at KRas G12D mutant (setting [1]); 0% on KRas G12D mutant (setting [2]); 0% on Rac-1 (setting [3]); 0% at Rac-1 (setting [4]); 26 to 50% at Rho-A (setting [5]); 0% on Rho-A (setting [6]).

For the compound `COCC(C)Nc1nc(-c2nccn2C)nc2sc(-c3ccn(C)n3)c(-c3ccc(OC)cc3)c12` (stereo not drawn) [drawing 1004], the inhibition at 20 µM is 1 to 25% on KRas G12D mutant (setting [1]); 0% at KRas G12D mutant (setting [2]); 0% at Rac-1 (setting [3]); 0% at Rac-1 (setting [4]); 1 to 25% on Rho-A (setting [5]); 1 to 25% on Rho-A (setting [6]).

For `COc1ccc(Cn2cnc(-c3nc(O)c4scc(-c5ccccn5)c4n3)c2)cc1` [drawing 974], the inhibition at 20 µM on KRas G12D mutant (setting [1]) is 0%; on KRas G12D mutant (setting [2]), 1 to 25%; on Rac-1 (setting [3]) it was 1 to 25%; at Rac-1 (setting [4]) it was 1 to 25%; at Rho-A (setting [5]), 0%; at Rho-A (setting [6]) it was 0%.
